Experimental data published in US20220274980A1, “PHARMACOLOGICAL INHIBITORS OF THE ENL YEATS DOMAIN” (priority 2019, published 2022).
Read-outs that look alike come from different tables or passages of the source.

Tests used:
[1] = target: T1, ENL YEATS domain (association with H3K27cr) (Homo sapiens, UniProt Q03111); test: biochemical; conditions: ENL (YEATS)-H3K27cr HTRF (IC50, μM)
T1 sequence (Q03111 1-148): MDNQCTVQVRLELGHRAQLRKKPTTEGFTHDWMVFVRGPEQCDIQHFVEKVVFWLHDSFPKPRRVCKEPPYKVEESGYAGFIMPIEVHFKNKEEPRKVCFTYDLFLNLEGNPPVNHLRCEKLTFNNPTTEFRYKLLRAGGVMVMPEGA
Protocol: (§1) Protein Production. Double stranded DNA fragments encoding the protein sequence of ENL YEATS(1-148) were synthesized (IDT DNA) for assembly-based cloning into a modified expression vector backbone derived from pET21a (Novagen). The protein was fused to a StrepII-SUMO and 6×His tag on the amino and carboxy terminus, respectively. Transformed BL21(DE3) cells (New England Biolabs) were grown at 37° C. in 2×YT growth medium to an OD600 of 0.6. Protein expression was induced at 25° C. with the addition of isopropyl-β-D-thiogalactopyranoside (IPTG) to a final concentration of 0.4 mM. The culture was harvested by centrifugation following a 20-hour incubation and subsequently purified by immobilized metal affinity chromatography. Cells were resuspended 50 mM Tris-HCl pH 8.0, 300 mM NaCl, 10% glycerol, 10 mM imidazole, 1 mM DTT containing Complete EDTA-free protease inhibitor (Roche) and lysed by two passes through a MicroFluidizer at 10,000 psi. The lysate was clarified by centrifugation at 16,000 rpm for 30 minutes at 4° C. The supernatant was passed over NiNTA agarose (QIAGEN) and the protein was eluted in 50 mM Tris-HCl pH 8.0, 300 mM NaCl, 10% glycerol, 250 mM imidazole, 1 mM DTT. Fractions containing the ENL YEATS(1-148) fusion protein were buffer exchanged into 100 mM Tris-HCl pH 8.0, 150 mM NaCl, 1 mM EDTA, 1 mM DTT using PD10 desalting columns (GE Life Sciences). Ulp1 protease was added to cleave the StrepII-SUMO fusion and the reaction mixture was incubated overnight at 4° C. The cleavage reaction mixture was loaded onto a StrepTrap column (GE Life Sciences) and ENL YEATS(1-148) was recovered in the flow through. BRD4 BD1 was purchased from Cayman (Cat. No. 11720).
(§2) Homogenous time-resolved FRET (HTRF) histone-binding assays. Both HTRF assays were performed by combining recombinant protein and synthetic histone peptide in assay buffer (25 mM HEPES pH 7, 20 mM NaCl, 0.2% Pluronic F-127, and 0.05% BSA) with 1 nM LanthaScreen Eu-anti-His Tag antibody (ThermoFisher, Cat. No, PV5597) and 8.9 nM SureLight allophycocyanin-streptavidin (Perkin Elmer, APC-SA, Cat. No. CR130-100). ENL YEATS was used at 5 nM and BRD4 BD1 was used at 10 nM. ENL assays were performed with H3(13-32)K27cr (13.3 and 100 nM, respectively), custom synthesized at ABclonal (N-terminal biotin, C-terminal amide); BRD4 BD1 assay was performed with 13.3 nM tetra-acetylated H4 (BioVision, Cat. No. 7144-01). Once all reagents were combined (with or without peptide), 10 μL was dispensed per well into black 384-well low-volume plates (Corning, Cat. No. 3821) and drug was added by pin tool transfer (Biomek FX). Assays were incubated for 2 or more hours before measurement of HTRF signal on a PHERAstar plate reader (BMG Labtech; simultaneous dual emission; excitation=337 nm, emission 1=665 nm, emission 2=620 nm). HTRF signal (ratio of emission 1 to emission 2) from vehicle-treated wells (maximum signal) and no-peptide-control wells (minimum signal) were used to calculate percent inhibition for drug-treated wells.

[2] = target: T2, BRD4 bromodomain 1 (BD1) (Homo sapiens, UniProt O60885); test: BRD4 (BD1)-H4 tetra-acetylated HTRF histone-binding assay
T2 construct: Selectivity against BRD4 bromodomain 1 (BD1), measured by HTRF; His; purchased Cayman 11720
Protocol: as §1, §2

[3] = target: T3, ENL(YEATS)-HiBiT (Homo sapiens, UniProt Q03111); test: cell-based
T3 sequence (Q03111 1-138 limits assumed): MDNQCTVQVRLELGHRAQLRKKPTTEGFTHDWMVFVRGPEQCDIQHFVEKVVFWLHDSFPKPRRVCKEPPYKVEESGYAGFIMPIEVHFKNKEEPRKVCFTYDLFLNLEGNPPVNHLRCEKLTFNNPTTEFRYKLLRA
Protocol: (§3) Cellular thermal shift assay (CETSA). […] Cells were transferred to 384-well (20,000 cells per well in 20 μL) or 1,536-well (3,000 cells per well in 4 μL) plates and drug was transferred using a 100 nL pin tool for 384-well plates or acoustic transfer (Labcyte, Echo Liquid Handler) for 1,536-well plates. Luminescent detection of HiBiT was performed by combining an equal volume of Nano-Glo HiBiT Lytic Reagent (Promega, HiBiT Lytic Detection System, Cat. No. N3040) in each well. […] Briefly, cells were treated with drug, washed with PBS, heated to various temperatures in a thermocycler, cooled to room temperature, lysed by three rounds of freeze-thaw, and then clarified lystaes were subjected to immunoblot analysis.

[4] = target: T3, ENL(YEATS)-HiBiT; conditions: read-out: ENL YEATS CETSA (IC50); Table 2; OCI/AML-2 cells expressing ENL(YEATS)-HiBiT
Protocol: as §3

[5] = Half-life in mouse liver microsomes; assay type: in vitro ADME
[6] = read-out: t1/2 (min) mouse liver microsomes
[7] = without NADPH, read-out: t1/2 mouse (min liver microsomes (without NADPH))

SMILES | IC50 ([1]; Table 1) | IC50 ([1]; Table 2) | IC50 ([2]; Table 1) | IC50 ([2]; Table 2) | IC50 [3] | IC50 [4] | half-life [5, 6] | half-life [5, 7]
CC(C)NC(=O)c1ccc2nc(-c3ccc(OC(F)(F)F)cc3)cn2c1 [Compound 19] | > 50 µM | > 50 µM | > 50 µM | > 50 µM | > 100 µM | > 100 µM | – | –
Cc1ccc(-c2cn3cc(C(=O)NC(C)C)ccc3n2)cc1C [Compound 25] | > 50 µM | > 50 µM | > 50 µM | > 50 µM | > 100 µM | > 100 µM | – | –
O=C(NC1(CO)CCC1)c1ccc2nc(-c3ccccc3)cn2c1 [Compound 72] | > 50 µM | > 50 µM | – | – | > 50 µM | > 50 µM | – | –
CC1(NC(=O)c2ccc3nc(-c4ccccc4)cn3c2)CCC1 [Compound 73] | > 50 µM | > 50 µM | – | – | > 50 µM | > 50 µM | – | –
O=C(NC1CC(F)(F)C1)c1ccc2nc(-c3ccccc3)cn2c1 [Compound 75] | > 50 µM | > 50 µM | – | – | > 50 µM | > 50 µM | – | –
O=C(NC1Cc2ccccc2C1)c1ccc2nc(-c3ccccc3)cn2c1 [Compound 77] | > 50 µM | > 50 µM | – | – | > 50 µM | > 50 µM | – | –
O=C(N[C@H]1CCc2ccccc21)c1ccc2nc(-c3ccccc3)cn2c1 [Compound 79] | > 50 µM | > 50 µM | – | – | > 50 µM | > 50 µM | – | –
CN(C(=O)c1ccc2nc(-c3ccccc3)cn2c1)C1CCC1 [Compound 81] | > 50 µM | > 50 µM | – | – | > 50 µM | > 50 µM | – | –
N#CC1(NC(=O)c2ccc3nc(-c4ccccc4)cn3c2)CCC1 [Compound 82] | > 50 µM | > 50 µM | – | – | > 50 µM | > 50 µM | – | –
O=C(NC1(c2ccccc2)CCC1)c1ccc2nc(-c3ccccc3)cn2c1 [Compound 83] | > 50 µM | > 50 µM | – | – | > 50 µM | > 50 µM | – | –
O=C(NC1C2CC1C2)c1ccc2nc(-c3ccccc3)cn2c1 (stereo not shown) [Compound 84] | > 50 µM | > 50 µM | – | – | > 50 µM | > 50 µM | – | –
O=C(N[C@@H]1CC[C@@H]1c1ccccc1)c1ccc2nc(-c3ccccc3)cn2c1 [Compound 115] | > 50 µM | > 50 µM | – | – | > 50 µM | > 50 µM | – | –
CC(C)C1CC(NC(=O)c2ccc3nc(-c4ccccc4)cn3c2)C1 (stereo not shown) [Compound 119] | > 50 µM | > 50 µM | – | – | > 50 µM | > 50 µM | – | –
CC(C)(C)C1CC(NC(=O)c2ccc3nc(-c4ccccc4)cn3c2)C1 (stereo not shown) [Compound 120] | > 50 µM | > 50 µM | – | – | > 50 µM | > 50 µM | – | –
Cc1ccc(C2CCC2NC(=O)c2ccc3nc(-c4ccccc4)cn3c2)c(C)c1 (stereo not shown) [Compound 123] | > 50 µM | > 50 µM | – | – | > 50 µM | > 50 µM | – | –

The remaining lines, values ahead:

IC50 ([1]; Table 1) | IC50 ([1]; Table 2) | IC50 ([2]; Table 1) | IC50 ([2]; Table 2) | IC50 [3] | IC50 [4] | half-life [5, 6] | half-life [5, 7] | SMILES
> 50 µM | > 50 µM | > 50 µM | > 50 µM | > 100 µM | > 100 µM | – | – | O=C(NC1CCC(O)CC1)c1ccc2nc(-c3ccccc3)cn2c1 (stereo not shown) [Compound 2]
3.5 µM | 3.5 µM | > 50 µM | > 50 µM | > 100 µM | > 100 µM | – | – | CC(C)NC(=O)c1ccc2nc(-c3cccc(OC(F)(F)F)c3)cn2c1 [Compound 3]
> 50 µM | > 50 µM | > 50 µM | > 50 µM | > 100 µM | > 100 µM | – | – | CC(C)NC(=O)c1ccc2nc(-c3ccccc3C(F)(F)F)cn2c1 [Compound 6]
> 50 µM | > 50 µM | > 50 µM | > 50 µM | > 100 µM | > 100 µM | – | – | CC(C)NC(=O)c1ccc2nc(-c3ccc(C(F)(F)F)cc3)cn2c1 [Compound 7]
> 50 µM | > 50 µM | > 50 µM | > 50 µM | > 100 µM | > 100 µM | – | – | CC(C)N(C)C(=O)c1ccc2nc(-c3ccccc3)cn2c1 [Compound 8]
> 50 µM | > 50 µM | > 50 µM | > 50 µM | > 100 µM | > 100 µM | – | – | COc1ccccc1-c1cn2cc(C(=O)NC(C)C)ccc2n1 [Compound 10]
> 50 µM | > 50 µM | > 50 µM | > 50 µM | > 100 µM | > 100 µM | – | – | O=C(NC1CCCCC1O)c1ccc2nc(-c3ccccc3)cn2c1 (stereo not shown) [Compound 11]
> 50 µM | > 50 µM | > 50 µM | > 50 µM | > 100 µM | > 100 µM | – | – | CC(C)NC(=O)c1ccc2nc(-c3ccccc3OC(F)(F)F)cn2c1 [Compound 12]
> 50 µM | > 50 µM | > 50 µM | > 50 µM | > 100 µM | > 100 µM | – | – | CCC(CC)NC(=O)c1ccc2nc(-c3ccccc3)cn2c1 [Compound 13]
15 µM | 15 µM | > 50 µM | > 50 µM | > 100 µM | > 100 µM | – | – | CC(C)NC(=O)c1ccc2nc(-c3cccc(C(F)(F)F)c3)cn2c1 [Compound 21]
33 µM | 33 µM | > 50 µM | > 50 µM | 80 µM | – | – | – | Cc1ccccc1-c1cn2cc(C(=O)NC(C)C)ccc2n1 [Compound 26]
0.12 µM | 0.12 µM | > 50 µM | > 50 µM | 8.5 µM | – | – | – | CC(C)NC(=O)c1ccc2nc(-c3cccc(NS(=O)(=O)NCCc4c[nH]cn4)c3)cn2c1 [Compound 46]
3.03 µM | 3.03 µM | – | – | > 50 µM | > 50 µM | – | – | O=C(NC1Cc2ccccc21)c1ccc2nc(-c3ccccc3)cn2c1 (stereo not shown) [Compound 80]
4.6 µM | 4.6 µM | – | – | > 50 µM | > 50 µM | – | – | CC1CC(NC(=O)c2ccc3nc(-c4ccccc4)cn3c2)C1 (stereo not shown) [Compound 87]
0.197 µM | 0.197 µM | – | – | 1.52 µM | – | 5.23 min | 774 min | COC1CCN(CCNS(=O)(=O)Nc2cccc(-c3cn4cc(C(=O)NC5CCC5)ccc4n3)c2)CC1 [Compound 94]
0.21 µM | 0.21 µM | – | – | 1.05 µM | – | 6.07 min | 504 min | O=C(NC1CCC1)c1ccc2nc(-c3cccc(NS(=O)(=O)NCCN4CCCCC4=O)c3)cn2c1 [Compound 95]
0.029 µM | 0.029 µM | – | – | 0.238 µM | – | 4.04 min | 463 min | CC1CCN(CCNS(=O)(=O)Nc2cccc(-c3cn4cc(C(=O)NC5CCC5)ccc4n3)c2)CC1 [Compound 100]
